Source: ChEMBL document CHEMBL6120971 (J Med Chem, 2024)
Calls of active or inactive are those of the source. The rule behind the calls is not given here.

Key:
[1] = Toxicity in BALB/c nude mouse xenografted with human MKN-45 cells assessed as effect on spleen morphology at 10 mg/kg, po administered once daily for 21 days by H and E staining based analysis; format: organism-based; conditions: in vivo, 504 h, time 21 day
[2] = Toxicity in BALB/c nude mouse xenografted with human MKN-45 cells assessed as effect on kidney morphology at 10 mg/kg, po administered once daily for 21 days by H and E staining based analysis; format: organism-based; conditions: in vivo, 504 h, time 21 day
[3] = Toxicity in BALB/c nude mouse xenografted with human MKN-45 cells assessed as body weight loss at 10 mg/kg, po administered once daily for 21 days; format: organism-based; conditions: in vivo, 504 h, time 21 day
[4] = Half-life in Wistar rat at 20 mg/kg, po measured after 24 hrs by UPLC-MS/MS analysis; format: ADME, organism-based; conditions: in vivo
[5] = Tmax in Wistar rat at 20 mg/kg, po measured after 24 hrs by UPLC-MS/MS analysis; format: ADME, organism-based; conditions: in vivo
[6] = Toxicity in BALB/c nude mouse xenografted with human MKN-45 cells assessed as effect on heart morphology at 10 mg/kg, po administered once daily for 21 days by H and E staining based analysis; format: organism-based; conditions: in vivo, 504 h, time 21 day
[7] = test system: MKN-45; test: Induction of c-MET degradation in human MKN-45 cells assessed as residual activity at 100 nM incubated for 24 hrs by Western blot analysis (reference value: 100 %); format: cell-based
[8] = AUC (0 to infinity) in po dosed rat; format: ADME, organism-based; conditions: in vivo
[9] = Cmax in po dosed rat; format: ADME, organism-based; conditions: in vivo
[10] = Toxicity in BALB/c nude mouse xenografted with human MKN-45 cells assessed as effect on lung morphology at 10 mg/kg, po administered once daily for 21 days by H and E staining based analysis; format: organism-based; conditions: in vivo, 504 h, time 21 day
[11] = Toxicity in BALB/c nude mouse xenografted with human MKN-45 cells assessed as effect on liver morphology at 10 mg/kg, po administered once daily for 21 days by H and E staining based analysis; format: organism-based; conditions: in vivo, 504 h, time 21 day
[12] = test system: MKN-45; test: Upregulation of PDCD4 protein level in human MKN-45 cells by MS-based quantitative proteomics analysis; format: functional, cell-based
[13] = biological target: T1, von Hippel-Lindau disease tumor suppressor/Hepatocyte growth factor receptor (Homo sapiens, UniProt P08581+P40337); test: PROTAC activity at VHL/c-MET in human MKN-45 cells assessed as induction of c-MET degradation by measuring residual activity at 100 nM incubated for 24 hrs by Western blot analysis (reference value: 100 %); format: cell-based
Target sequence in this assay (P40337 whole entry partner): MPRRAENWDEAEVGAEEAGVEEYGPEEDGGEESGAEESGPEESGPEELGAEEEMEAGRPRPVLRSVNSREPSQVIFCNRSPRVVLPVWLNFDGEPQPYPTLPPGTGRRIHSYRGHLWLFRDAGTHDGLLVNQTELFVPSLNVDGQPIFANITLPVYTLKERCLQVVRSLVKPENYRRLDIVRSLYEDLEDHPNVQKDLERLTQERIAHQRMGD
Target sequence in this assay (P08581 25-1390 limits assumed): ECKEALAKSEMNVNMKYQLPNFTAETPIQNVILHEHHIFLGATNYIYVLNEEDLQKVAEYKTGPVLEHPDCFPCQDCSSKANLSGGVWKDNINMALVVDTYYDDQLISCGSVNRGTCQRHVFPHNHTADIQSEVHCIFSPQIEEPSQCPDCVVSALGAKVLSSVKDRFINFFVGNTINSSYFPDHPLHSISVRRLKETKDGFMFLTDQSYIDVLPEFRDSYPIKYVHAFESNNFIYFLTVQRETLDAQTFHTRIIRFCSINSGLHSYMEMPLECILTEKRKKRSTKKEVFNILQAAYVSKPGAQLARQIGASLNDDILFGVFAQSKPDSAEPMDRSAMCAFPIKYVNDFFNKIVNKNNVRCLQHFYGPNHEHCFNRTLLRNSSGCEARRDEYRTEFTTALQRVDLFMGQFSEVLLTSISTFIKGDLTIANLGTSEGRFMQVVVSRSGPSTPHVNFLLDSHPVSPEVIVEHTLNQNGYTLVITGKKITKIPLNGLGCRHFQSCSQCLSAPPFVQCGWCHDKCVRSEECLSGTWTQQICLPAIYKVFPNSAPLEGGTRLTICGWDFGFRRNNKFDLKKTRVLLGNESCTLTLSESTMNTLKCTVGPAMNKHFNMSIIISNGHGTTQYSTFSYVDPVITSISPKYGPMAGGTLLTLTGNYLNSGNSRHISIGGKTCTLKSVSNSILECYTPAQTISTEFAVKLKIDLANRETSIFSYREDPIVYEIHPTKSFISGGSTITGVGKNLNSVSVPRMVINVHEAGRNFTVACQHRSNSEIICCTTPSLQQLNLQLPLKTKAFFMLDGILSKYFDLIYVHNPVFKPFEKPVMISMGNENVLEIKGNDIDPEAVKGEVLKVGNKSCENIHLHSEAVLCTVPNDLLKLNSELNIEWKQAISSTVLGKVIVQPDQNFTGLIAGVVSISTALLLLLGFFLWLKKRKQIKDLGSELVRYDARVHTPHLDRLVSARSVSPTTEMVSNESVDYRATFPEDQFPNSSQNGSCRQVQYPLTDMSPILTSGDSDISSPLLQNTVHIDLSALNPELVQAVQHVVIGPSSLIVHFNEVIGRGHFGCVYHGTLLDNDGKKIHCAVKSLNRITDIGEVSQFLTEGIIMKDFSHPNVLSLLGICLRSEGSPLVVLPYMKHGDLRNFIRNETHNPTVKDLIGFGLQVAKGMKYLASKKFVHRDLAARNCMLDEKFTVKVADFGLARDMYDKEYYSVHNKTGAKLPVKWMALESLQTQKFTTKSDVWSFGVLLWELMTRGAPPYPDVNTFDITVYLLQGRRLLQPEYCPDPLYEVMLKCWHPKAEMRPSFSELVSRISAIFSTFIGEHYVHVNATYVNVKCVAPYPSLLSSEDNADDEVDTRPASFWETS

[14] = test system: MKN-45; test: Downregulation of HMGCS1 protein level in human MKN-45 cells by MS-based quantitative proteomics analysis; format: functional, cell-based
[15] = test system: MKN-45; test: Downregulation of prothymosin-alpha protein abundance in human MKN-45 cells by MS-based quantitative proteomics analysis; format: functional, cell-based
[16] = test system: MKN-45; test: Antiproliferative activity against human MKN-45 cells incubated for 72 hrs by CCK8 assay; format: functional, cell-based; conditions: MKN-45, 72 h
[17] = test system: HCC1954; test: Antiproliferative activity against human HCC1954 cells incubated for 72 hrs by MTT assay; format: functional, cell-based; conditions: HCC1954, 72 h
[18] = biological target: T1, von Hippel-Lindau disease tumor suppressor/Hepatocyte growth factor receptor; test: PROTAC activity at VHL/c-MET (unknown origin); format: protein
Target sequence in this assay (P08581 whole entry): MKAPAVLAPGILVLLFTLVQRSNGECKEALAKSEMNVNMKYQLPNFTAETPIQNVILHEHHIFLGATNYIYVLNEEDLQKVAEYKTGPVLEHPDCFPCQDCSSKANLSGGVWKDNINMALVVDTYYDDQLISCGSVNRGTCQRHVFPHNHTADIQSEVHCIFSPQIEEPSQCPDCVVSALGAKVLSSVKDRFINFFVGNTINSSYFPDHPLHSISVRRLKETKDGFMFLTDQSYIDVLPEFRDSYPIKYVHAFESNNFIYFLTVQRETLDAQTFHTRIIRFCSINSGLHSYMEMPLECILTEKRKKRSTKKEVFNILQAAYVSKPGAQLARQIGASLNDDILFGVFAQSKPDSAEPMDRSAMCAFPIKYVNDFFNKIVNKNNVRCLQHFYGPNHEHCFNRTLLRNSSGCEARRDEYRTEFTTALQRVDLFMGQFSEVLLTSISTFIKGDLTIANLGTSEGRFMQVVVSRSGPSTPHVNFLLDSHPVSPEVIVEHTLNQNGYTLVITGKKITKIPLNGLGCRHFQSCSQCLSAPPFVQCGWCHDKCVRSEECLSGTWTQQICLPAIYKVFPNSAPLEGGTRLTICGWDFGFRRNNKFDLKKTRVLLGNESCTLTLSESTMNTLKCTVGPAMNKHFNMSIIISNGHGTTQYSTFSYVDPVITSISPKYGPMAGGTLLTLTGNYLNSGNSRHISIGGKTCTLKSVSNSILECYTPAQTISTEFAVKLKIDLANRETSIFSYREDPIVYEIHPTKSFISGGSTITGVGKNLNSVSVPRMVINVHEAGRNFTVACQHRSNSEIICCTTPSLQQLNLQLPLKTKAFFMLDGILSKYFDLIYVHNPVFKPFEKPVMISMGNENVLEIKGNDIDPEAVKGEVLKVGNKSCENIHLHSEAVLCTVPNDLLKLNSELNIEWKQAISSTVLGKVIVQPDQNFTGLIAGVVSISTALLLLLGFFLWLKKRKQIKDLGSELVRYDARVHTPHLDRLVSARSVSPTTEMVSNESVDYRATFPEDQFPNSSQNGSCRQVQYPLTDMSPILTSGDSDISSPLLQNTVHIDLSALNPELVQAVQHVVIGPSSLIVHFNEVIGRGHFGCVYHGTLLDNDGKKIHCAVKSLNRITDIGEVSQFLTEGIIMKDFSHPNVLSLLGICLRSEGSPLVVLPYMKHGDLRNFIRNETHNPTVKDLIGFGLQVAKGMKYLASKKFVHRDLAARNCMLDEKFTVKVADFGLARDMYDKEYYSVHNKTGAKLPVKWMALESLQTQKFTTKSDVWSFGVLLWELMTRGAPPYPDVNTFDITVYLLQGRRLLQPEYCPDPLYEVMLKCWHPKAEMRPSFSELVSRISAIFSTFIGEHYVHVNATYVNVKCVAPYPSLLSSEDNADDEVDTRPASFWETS
Target sequence in this assay (P40337 whole entry): as the sequence (P40337 whole entry partner) above

[19] = test system: MKN-45; test: Downregulation of SLC7A1 protein level in human MKN-45 cells by MS-based quantitative proteomics analysis; format: functional, cell-based
[20] = biological target: T1, von Hippel-Lindau disease tumor suppressor/Hepatocyte growth factor receptor; test: PROTAC activity at VHL/c-MET in human MKN-45 cells assessed as induction of c-MET degradation at 6.25 to 100 nM incubated for 24 hrs by Western blot analysis; format: cell-based; conditions: dose 6.25-100 nM
Target sequence in this assay (P40337 whole entry partner): as above
Target sequence in this assay (P08581 25-1390 limits assumed): as the sequence (P08581 25-1390 limits assumed) above

[21] = biological target: von Hippel-Lindau disease tumor suppressor/Importin subunit alpha-1 (Homo sapiens) (UniProt P52292+P40337); test: PROTAC activity at VHL/KPNA2 in human MKN-45 cells assessed as induction of c-MET degradation at 6.25 to 100 nM incubated for 24 hrs by Western blot analysis; format: cell-based; conditions: dose 6.25-100 nM
[22] = test system: MKN-45; test: Downregulation of KPNA2 protein level in human MKN-45 cells by MS-based quantitative proteomics analysis; format: functional, cell-based
[23] = biological target: Protein cereblon/Hepatocyte growth factor receptor (Homo sapiens, UniProt P08581+Q96SW2); test: PROTAC activity at CRBN/c-MET in human MKN-45 cells assessed as induction of c-MET degradation incubated for 72 hrs by Western blot analysis; format: cell-based
Sequence of Protein cereblon/Hepatocyte growth factor receptor (P08581 whole entry): as the sequence (P08581 whole entry) above
Sequence of Protein cereblon/Hepatocyte growth factor receptor (Q96SW2 whole entry): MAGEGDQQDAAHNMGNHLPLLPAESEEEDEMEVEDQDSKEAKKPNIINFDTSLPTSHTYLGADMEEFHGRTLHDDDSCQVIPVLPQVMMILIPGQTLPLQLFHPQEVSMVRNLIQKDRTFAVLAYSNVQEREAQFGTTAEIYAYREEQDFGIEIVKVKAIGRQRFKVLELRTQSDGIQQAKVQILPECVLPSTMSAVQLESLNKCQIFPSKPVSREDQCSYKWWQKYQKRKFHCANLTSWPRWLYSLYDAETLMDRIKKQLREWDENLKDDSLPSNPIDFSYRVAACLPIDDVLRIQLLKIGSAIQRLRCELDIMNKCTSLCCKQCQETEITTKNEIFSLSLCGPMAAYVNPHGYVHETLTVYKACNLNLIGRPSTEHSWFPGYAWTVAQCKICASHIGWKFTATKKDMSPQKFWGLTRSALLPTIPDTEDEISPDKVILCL

Question: For `CNC(=O)c1ccc(-c2cnc3ncc(Cc4ccc5ncccc5c4)n3n2)cc1F` [CAPMATINIB], which Activity [1] is on record?
Answer: Non-toxic

Question: And the Activity [2]?
Answer: Non-toxic

Question: And the Activity [3]?
Answer: Non-toxic

Question: And the half-life [4]?
Answer: 4.09 h

Question: And the Tmax [5]?
Answer: 0.5 h

Question: What about the Activity [6] of the same compound?
Answer: Non-toxic

Question: And the Activity [7]?
Answer: 112%

Question: And the AUC(0-inf) [8]?
Answer: 10400 ng·h/mL

Question: What about the Cmax [9] of the same compound?
Answer: 3820 ng/mL

Question: What about the Activity [10] of the same compound?
Answer: Non-toxic

Question: And the Activity [11]?
Answer: Non-toxic

Question: For `Cc1ncsc1-c1ccc([C@H](C)NC(=O)[C@@H]2C[C@@H](O)CN2C(=O)[C@@H](NC(=O)CCCCCCCCC(=O)N2CCC(COc3cnc(-c4cccc(Cn5nc(-c6cccc(C#N)c6)ccc5=O)c4)nc3)CC2)C(C)(C)C)cc1`, which Activity [12] is on record?
Answer: Active

Question: And the Activity [13]?
Answer: 50%

Question: And the Activity [14]?
Answer: Active

Question: What about the Activity [15] of the same compound?
Answer: Active

Question: What about the IC50 [16] of the same compound?
Answer: 102 nM

Question: For `COc1cc2c(Oc3ccc(NC(=O)C4(C(=O)Nc5ccc(F)cc5)CC4)cc3)ccnc2cc1OCCCOCCCOCCC(=O)N[C@H](C(=O)N1C[C@H](O)C[C@H]1C(=O)NCc1ccc(-c2scnc2C)cc1)C(C)(C)C`, which IC50 [17] is on record?
Answer: 6700 nM

Question: And the DC50 [18]?
Answer: > 1110 nM

Question: For `Cc1ncsc1-c1ccc([C@H](C)NC(=O)[C@@H]2C[C@@H](O)CN2C(=O)[C@@H](NC(=O)CCCCCCCCC(=O)N2CCC(n3cc(-c4cnc(N)c(O[C@H](C)c5c(Cl)ccc(F)c5Cl)c4)cn3)CC2)C(C)(C)C)cc1`, which Activity [12] is on record?
Answer: Active

Question: And the Activity [19]?
Answer: Active

Question: What about the Activity [13] of the same compound?
Answer: 64%

Question: What about the Activity [20] of the same compound?
Answer: Active

Question: What about the Activity [21] of the same compound?
Answer: Active

Question: What about the IC50 [16] of the same compound?
Answer: 70.7 nM

Question: And the Activity [22]?
Answer: Active

Question: Which results are given for `C[C@@H](Oc1cc(-c2cnn(C3CCN(C(=O)CCCCCCCOc4cccc5c4C(=O)N(C4CCC(=O)NC4=O)C5=O)CC3)c2)cnc1N)c1c(Cl)ccc(F)c1Cl` (some centres not stated)?
Answer: DC50 [23]: > 100 nM; IC50 [16]: 347 nM
